For 20 compounds, IC50 results are on record in US11229623B2 (GlaxoSmithKline Intellectual Property (No.2) Limited, priority 2016, dated 2022).

The first assay deals with T1, human TRPV4 (Homo sapiens, UniProt Q9HBA0).
T1 construct: expressed in transfected cells; host or cells: BHK/AC9 cells transduced with BacMam virus
T1 sequence (Q9HBA0 whole entry): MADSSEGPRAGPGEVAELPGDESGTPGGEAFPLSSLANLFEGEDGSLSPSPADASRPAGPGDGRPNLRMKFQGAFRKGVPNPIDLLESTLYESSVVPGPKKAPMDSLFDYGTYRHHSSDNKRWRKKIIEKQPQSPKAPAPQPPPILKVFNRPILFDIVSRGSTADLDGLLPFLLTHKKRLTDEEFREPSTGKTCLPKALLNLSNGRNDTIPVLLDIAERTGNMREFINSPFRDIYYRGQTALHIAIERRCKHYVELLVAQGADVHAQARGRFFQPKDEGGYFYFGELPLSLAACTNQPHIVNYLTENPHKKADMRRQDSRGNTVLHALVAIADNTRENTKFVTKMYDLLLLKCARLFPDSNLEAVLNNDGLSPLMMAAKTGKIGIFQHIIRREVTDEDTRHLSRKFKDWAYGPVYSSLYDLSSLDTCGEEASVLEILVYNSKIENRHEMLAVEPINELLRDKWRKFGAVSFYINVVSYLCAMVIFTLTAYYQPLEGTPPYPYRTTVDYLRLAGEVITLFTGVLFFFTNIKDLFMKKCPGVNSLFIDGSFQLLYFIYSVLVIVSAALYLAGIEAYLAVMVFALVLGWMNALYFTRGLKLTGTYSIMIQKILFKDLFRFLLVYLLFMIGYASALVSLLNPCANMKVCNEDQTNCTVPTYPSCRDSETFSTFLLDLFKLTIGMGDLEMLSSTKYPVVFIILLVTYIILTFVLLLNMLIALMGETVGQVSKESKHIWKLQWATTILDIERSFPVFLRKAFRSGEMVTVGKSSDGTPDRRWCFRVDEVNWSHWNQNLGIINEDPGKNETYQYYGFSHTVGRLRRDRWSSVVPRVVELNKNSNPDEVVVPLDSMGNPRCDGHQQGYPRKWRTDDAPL
Nature of the assay: FLIPR assay for hTRPV4 expressed in BHK cells: inhibition of Agonist Compound-induced calcium signal. The class given is cell-based. The conditions noted are these: IC50, hTRPV4 in BHK/AC9 cells, FLIPR calcium signal, agonist at EC80; reported as range class. The procedure, abridged:
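BHK/AC9 cells transduced with BacMam human TRPV4 (MOI 78), plated 15,000 per well and cultured 24 h at 37° C. Loaded with 2 μM Fluo-4 AM plus 500 μM Brilliant Black in HBSS for 1-1.5 h at room temperature in the dark; intracellular calcium signal read by FLIPR fluorescence.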
For `C[Si](C)(C)C#Cc1ccc(S(=O)(=O)N2C[C@H](Oc3ccc(C#N)c(F)c3)[C@](O)(CO)C2)c(C#N)c1` [Example 221, 4-(((3S,4R)-1-((2-cyano-4-((trimethylsilyl)ethynyl)phenyl)sulfonyl)-4-hydroxy-4-(hydroxymethyl)pyrrolidin-3-yl)oxy)-2-fluorobenzonitrile], the IC50 lay in the range of 0.0001 to 0.01 µM.

Staying with this assay, now noted: hTRPV4 in BHK/AC9 cells, FLIPR calcium signal, agonist at EC80; reported as range class; read-out: IC50.
For the compound `C[C@@H](O)[C@]1(O)CN(S(=O)(=O)c2ccc(C(F)(F)F)nc2)C[C@@H]1Oc1ccc(C#N)c(F)c1` [Example 206, 2-fluoro-4-(((3S,4R)-4-hydroxy-4-((R)-1-hydroxyethyl)-1-((6-(trifluoromethyl)pyridin-3-yl)sulfonyl)pyrrolidin-3-yl)oxy)benzonitrile], the IC50 lay in the range of 0.01 to 0.1 µM.

In the case of `C[C@@H](O)[C@]1(O)CN(S(=O)(=O)c2ccc(F)cn2)C[C@@H]1Oc1ccc(C#N)c(F)c1` [Example 207, 2-fluoro-4-(((3S,4R)-1-((5-fluoropyridin-2-yl)sulfonyl)-4-hydroxy-4-((R)-1-hydroxyethyl)pyrrolidin-3-yl)oxy)benzonitrile], the half-maximal inhibitory concentration (IC50) lay in the range of 0.01 to 0.1 µM.

For `C[C@@H](O)[C@]1(O)CN(S(=O)(=O)c2ccc(OC(F)(F)F)nc2)C[C@@H]1Oc1ccc(C#N)c(F)c1` [Example 208, 2-fluoro-4-(((3S,4R)-4-hydroxy-4-((R)-1-hydroxyethyl)-1-((6-(trifluoromethoxy)pyridin-3-yl)sulfonyl)pyrrolidin-3-yl)oxy)benzonitrile], the IC50 was 0.01 to 0.1 µM.

`C[C@@H](O)[C@]1(O)CN(S(=O)(=O)c2ccc(I)cc2)C[C@@H]1Oc1ccc(C#N)c(F)c1` [Example 209, 2-fluoro-4-(((3S,4R)-4-hydroxy-4-((R)-1-hydroxyethyl)-1-((4-iodophenyl)sulfonyl)pyrrolidin-3-yl)oxy)benzonitrile]: the IC50 lay within 0.0001 to 0.01 µM.

Turning to `C[C@@H](O)[C@]1(O)CN(S(=O)(=O)c2ccc(OC(F)(F)F)cn2)C[C@@H]1Oc1ccc(C#N)c(F)c1` [Example 210, 2-fluoro-4-(((3S,4R)-4-hydroxy-4-((R)-1-hydroxyethyl)-1-((5-(trifluoromethoxy)pyridin-2-yl)sulfonyl)pyrrolidin-3-yl)oxy)benzonitrile], the half-inhibitory concentration (IC50) lay in the range of 0.01 to 0.1 µM.

As to `C[C@@H](O)[C@]1(O)CN(S(=O)(=O)c2ccc(C(F)F)cn2)C[C@@H]1Oc1ccc(C#N)c(F)c1` [Example 211, 4-(((3S,4R)-1-((5-(difluoromethyl)pyridin-2-yl)sulfonyl)-4-hydroxy-4-((R)-1-hydroxyethyl)pyrrolidin-3-yl)oxy)-2-fluorobenzonitrile], the IC50 was in the range of 0.01 to 0.1 µM.

As for `C[C@@H](O)[C@]1(O)CN(S(=O)(=O)c2ccc(C(F)F)nc2)C[C@@H]1Oc1ccc(C#N)c(F)c1` [Example 212, 4-(((3S,4R)-1-((6-(difluoromethyl)pyridin-3-yl)sulfonyl)-4-hydroxy-4-((R)-1-hydroxyethyl)pyrrolidin-3-yl)oxy)-2-fluorobenzonitrile], the IC50 lay in the range of 0.01 to 0.1 µM.

For the compound `C[C@@H](O)[C@]1(O)CN(S(=O)(=O)c2ccc(OC(F)F)nc2)C[C@@H]1Oc1ccc(C#N)c(F)c1` [Example 213, 4-(((3S,4R)-1-((6-(difluoromethoxy)pyridin-3-yl)sulfonyl)-4-hydroxy-4-((R)-1-hydroxyethyl)pyrrolidin-3-yl)oxy)-2-fluorobenzonitrile], the IC50 was 0.01 to 0.1 µM.

As to `CC(C)(O)[C@]1(O)CN(S(=O)(=O)c2ccc(Cl)cn2)C[C@@H]1Oc1ccc(C#N)c(F)c1` [Example 214, 4-(((3S,4S)-1-((5-chloropyridin-2-yl)sulfonyl)-4-hydroxy-4-(2-hydroxypropan-2-yl)pyrrolidin-3-yl)oxy)-2-fluorobenzonitrile], the IC50 is 0.01 to 0.1 µM.

Turning to `N#Cc1cc(OCC(F)(F)F)c(O[C@H]2CN(S(=O)(=O)c3ccc(Cl)cn3)C[C@]2(O)CO)cc1F` [Example 215, 4-(((3S,4S)-1-((5-chloropyridin-2-yl)sulfonyl)-4-hydroxy-4-(hydroxymethyl)pyrrolidin-3-yl)oxy)-2-fluoro-5-(2,2,2-trifluoroethoxy)benzonitrile], the IC50 lay within 0.01 to 0.1 µM.

For the compound `Cc1ccc(S(=O)(=O)N2C[C@H](Oc3ccc(C#N)c(F)c3)[C@](O)(CO)C2)c(C#N)c1` [Example 216, 4-(((3S,4R)-1-((2-cyano-4-methylphenyl)sulfonyl)-4-hydroxy-4-(hydroxymethyl)pyrrolidin-3-yl)oxy)-2-fluorobenzonitrile], the IC50 is 0.0001 to 0.01 µM.

Consider `CCc1ccc(S(=O)(=O)N2C[C@H](Oc3ccc(C#N)c(F)c3)[C@](O)(CO)C2)c(C#N)c1` [Example 217, 4-(((3S,4R)-1-((2-cyano-4-ethylphenyl)sulfonyl)-4-hydroxy-4-(hydroxymethyl)pyrrolidin-3-yl)oxy)-2-fluorobenzonitrile], for which the half-maximal inhibitory concentration (IC50) lay within 0.0001 to 0.01 µM.

As to `N#Cc1ccc(O[C@H]2CN(S(=O)(=O)c3ccc(-c4ccccc4)cc3C#N)C[C@@]2(O)CO)cc1F` [Example 218, 4-(((3R,4S)-4-(4-cyano-3-fluorophenoxy)-3-hydroxy-3-(hydroxymethyl)pyrrolidin-1-yl)sulfonyl)-[1,1′-biphenyl]-3-carbonitrile], the half-maximal inhibitory concentration (IC50) lay in the range of 0.01 to 0.1 µM.

Regarding `CC#Cc1ccc(S(=O)(=O)N2C[C@H](Oc3ccc(C#N)c(F)c3)[C@](O)(CO)C2)c(C#N)c1` [Example 219, 4-(((3S,4R)-1-((2-cyano-4-(prop-1-yn-1-yl)phenyl)sulfonyl)-4-hydroxy-4-(hydroxymethyl)pyrrolidin-3-yl)oxy)-2-fluorobenzonitrile], the half-inhibitory concentration (IC50) fell in the range of 0.0001 to 0.01 µM.

As for `C#Cc1ccc(S(=O)(=O)N2C[C@H](Oc3ccc(C#N)c(F)c3)[C@](O)(CO)C2)c(C#N)c1` [Example 220, 4-(((3S,4R)-1-((2-cyano-4-ethynylphenyl)sulfonyl)-4-hydroxy-4-(hydroxymethyl)pyrrolidin-3-yl)oxy)-2-fluorobenzonitrile], the IC50 fell in the range of 0.0001 to 0.01 µM.

`CC#Cc1ccc(S(=O)(=O)N2C[C@H](Oc3ccc(C#N)c(F)c3)[C@](O)(CO)C2)cc1` [Example 222, 2-fluoro-4-(((3S,4R)-4-hydroxy-4-(hydroxymethyl)-1-((4-(prop-1-yn-1-yl)phenyl)sulfonyl)pyrrolidin-3-yl)oxy)benzonitrile]: the concentration for half-maximal inhibition (IC50) fell in the range of 0.0001 to 0.01 µM.

As for `CC#Cc1ccc(S(=O)(=O)N2C[C@H](Oc3ccc(C#N)c(F)c3)[C@](O)(CO)C2)cn1` [Example 223, 2-fluoro-4-(((3S,4R)-4-hydroxy-4-(hydroxymethyl)-1-((6-(prop-1-yn-1-yl)pyridin-3-yl)sulfonyl)pyrrolidin-3-yl)oxy)benzonitrile], the IC50 lay in the range of 0.01 to 0.1 µM.

Regarding `CC#Cc1cc(C#N)ccc1S(=O)(=O)N1C[C@H](Oc2ccc(C#N)c(F)c2)[C@](O)(CO)C1` [Example 224, 4-(((3S,4R)-1-((4-cyano-2-(prop-1-yn-1-yl)phenyl)sulfonyl)-4-hydroxy-4-(hydroxymethyl)pyrrolidin-3-yl)oxy)-2-fluorobenzonitrile], the concentration for half-maximal inhibition (IC50) fell in the range of 0.01 to 0.1 µM.

For the compound `C#Cc1cc(C(F)(F)F)ccc1S(=O)(=O)N1C[C@H](Oc2ccc(C#N)c(F)c2)[C@](O)(CO)C1` [Example 225, 4-(((3S,4R)-1-((2-ethynyl-4-(trifluoromethyl)phenyl)sulfonyl)-4-hydroxy-4-(hydroxymethyl)pyrrolidin-3-yl)oxy)-2-fluorobenzonitrile], the concentration for half-maximal inhibition (IC50) was 0.0001 to 0.01 µM.

A word on the IC50: it is the concentration that inhibits the measured activity by half.
